Source: EP0726263A2, “Herbicidal (1,3,4)oxadiazoles and thiadiazoles” (American Cyanamid Company, priority 1995, dated 1996)

How the values were obtained:
Type in all cases: in vivo
Ipomoea hederacea [1] = assay: Herbicidal activity, preemergence test; conditions: pre; sprayed onto soil, 800 g of active material per hectare; evaluated 3 weeks after treatment
Outline: (§1)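 First, test compound in acetone containing 0.4% Triton X-155 is diluted with water. Next, it is sprayed at 800 g/ha (900 L/ha) onto freshly seeded loam (pre) or onto seedlings (post). Finally, plants are scored 0-9 visually after 3 or 2 weeks, respectively.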

Chenopodium album [2] = assay: Herbicidal activity, preemergence test; conditions: pre; sprayed onto soil, 800 g of active material per hectare; evaluated 3 weeks after treatment
Outline: as §1

Matricaria inodora [3] = assay: Herbicidal activity, preemergence test; conditions: pre; sprayed onto soil, 800 g of active material per hectare; evaluated 3 weeks after treatment
Outline: as §1

Hordeum vulgare [4] = assay: Herbicidal activity, preemergence test; conditions: pre; sprayed onto soil, 800 g of active material per hectare; evaluated 3 weeks after treatment
Outline: as §1

Amaranthus retroflexus [5] = assay: Herbicidal activity, preemergence test; conditions: pre; sprayed onto soil, 800 g of active material per hectare; evaluated 3 weeks after treatment
Outline: as §1

Papaver rhoeas [6] = assay: Herbicidal activity, preemergence test; conditions: pre; sprayed onto soil, 800 g of active material per hectare; evaluated 3 weeks after treatment
Outline: as §1

Triticum aestivum [7] = assay: Herbicidal activity, preemergence test; conditions: pre; sprayed onto soil, 800 g of active material per hectare; evaluated 3 weeks after treatment
Outline: as §1

Stellaria media [8] = assay: Herbicidal activity, preemergence test; conditions: pre; sprayed onto soil, 800 g of active material per hectare; evaluated 3 weeks after treatment
Outline: as §1

Alopecurus myosuroides [9] = assay: Herbicidal activity, preemergence test; conditions: pre; sprayed onto soil, 800 g of active material per hectare; evaluated 3 weeks after treatment
Outline: as §1

Glycine max [10] = assay: Herbicidal activity, preemergence test; conditions: pre; sprayed onto soil, 800 g of active material per hectare; evaluated 3 weeks after treatment
Outline: as §1

Setaria viridis [11] = assay: Herbicidal activity, preemergence test; conditions: pre; sprayed onto soil, 800 g of active material per hectare; evaluated 3 weeks after treatment
Outline: as §1

Galium aparine [12] = assay: Herbicidal activity, preemergence test; conditions: pre; sprayed onto soil, 800 g of active material per hectare; evaluated 3 weeks after treatment
Outline: as §1

Lamium purpureum [13] = assay: Herbicidal activity, preemergence test; conditions: pre; sprayed onto soil, 800 g of active material per hectare; evaluated 3 weeks after treatment
Outline: as §1

Gossypium hirsutum [14] = assay: Herbicidal activity, preemergence test; conditions: pre; sprayed onto soil, 800 g of active material per hectare; evaluated 3 weeks after treatment
Outline: as §1

Veronica persica [15] = assay: Herbicidal activity, preemergence test; conditions: pre; sprayed onto soil, 800 g of active material per hectare; evaluated 3 weeks after treatment
Outline: as §1

Zea mays [16] = assay: Herbicidal activity, preemergence test; conditions: pre; sprayed onto soil, 800 g of active material per hectare; evaluated 3 weeks after treatment
Outline: as §1

Abutilon theophrasti [17] = assay: Herbicidal activity, preemergence test; conditions: pre; sprayed onto soil, 800 g of active material per hectare; evaluated 3 weeks after treatment
Outline: as §1

Ambrosia artemisifolia [18] = assay: Herbicidal activity, preemergence test; conditions: pre; sprayed onto soil, 800 g of active material per hectare; evaluated 3 weeks after treatment
Outline: as §1

Ipomoea hederacea [19] = assay: Herbicidal activity, postemergence test; conditions: post; sprayed onto seedling plants, 800 g of active material per hectare; evaluated 2 weeks after treatment
Outline: as §1

Chenopodium album [20] = assay: Herbicidal activity, postemergence test; conditions: post; sprayed onto seedling plants, 800 g of active material per hectare; evaluated 2 weeks after treatment
Outline: as §1

Matricaria inodora [21] = assay: Herbicidal activity, postemergence test; conditions: post; sprayed onto seedling plants, 800 g of active material per hectare; evaluated 2 weeks after treatment
Outline: as §1

Hordeum vulgare [22] = assay: Herbicidal activity, postemergence test; conditions: post; sprayed onto seedling plants, 800 g of active material per hectare; evaluated 2 weeks after treatment
Outline: as §1

Amaranthus retroflexus [23] = assay: Herbicidal activity, postemergence test; conditions: post; sprayed onto seedling plants, 800 g of active material per hectare; evaluated 2 weeks after treatment
Outline: as §1

Papaver rhoeas [24] = assay: Herbicidal activity, postemergence test; conditions: post; sprayed onto seedling plants, 800 g of active material per hectare; evaluated 2 weeks after treatment
Outline: as §1

Triticum aestivum [25] = assay: Herbicidal activity, postemergence test; conditions: post; sprayed onto seedling plants, 800 g of active material per hectare; evaluated 2 weeks after treatment
Outline: as §1

Stellaria media [26] = assay: Herbicidal activity, postemergence test; conditions: post; sprayed onto seedling plants, 800 g of active material per hectare; evaluated 2 weeks after treatment
Outline: as §1

Alopecurus myosuroides [27] = assay: Herbicidal activity, postemergence test; conditions: post; sprayed onto seedling plants, 800 g of active material per hectare; evaluated 2 weeks after treatment
Outline: as §1

Glycine max [28] = assay: Herbicidal activity, postemergence test; conditions: post; sprayed onto seedling plants, 800 g of active material per hectare; evaluated 2 weeks after treatment
Outline: as §1

Setaria viridis [29] = assay: Herbicidal activity, postemergence test; conditions: post; sprayed onto seedling plants, 800 g of active material per hectare; evaluated 2 weeks after treatment
Outline: as §1

Galium aparine [30] = assay: Herbicidal activity, postemergence test; conditions: post; sprayed onto seedling plants, 800 g of active material per hectare; evaluated 2 weeks after treatment
Outline: as §1

Lamium purpureum [31] = assay: Herbicidal activity, postemergence test; conditions: post; sprayed onto seedling plants, 800 g of active material per hectare; evaluated 2 weeks after treatment
Outline: as §1

Gossypium hirsutum [32] = assay: Herbicidal activity, postemergence test; conditions: post; sprayed onto seedling plants, 800 g of active material per hectare; evaluated 2 weeks after treatment
Outline: as §1

Veronica persica [33] = assay: Herbicidal activity, postemergence test; conditions: post; sprayed onto seedling plants, 800 g of active material per hectare; evaluated 2 weeks after treatment
Outline: as §1

Zea mays [34] = assay: Herbicidal activity, postemergence test; conditions: post; sprayed onto seedling plants, 800 g of active material per hectare; evaluated 2 weeks after treatment
Outline: as §1

Abutilon theophrasti [35] = assay: Herbicidal activity, postemergence test; conditions: post; sprayed onto seedling plants, 800 g of active material per hectare; evaluated 2 weeks after treatment
Outline: as §1

Ambrosia artemisifolia [36] = assay: Herbicidal activity, postemergence test; conditions: post; sprayed onto seedling plants, 800 g of active material per hectare; evaluated 2 weeks after treatment
Outline: as §1

C[C@H](NC(=O)c1nnc(-c2c(Cl)cccc2Cl)o1)c1ccccc1 [Example 25]
2 (slight effect): PAPRH control rating (0-9) (Papaver rhoeas [24])
1 (trace effect): IPOHE control rating (0-9) (Ipomoea hederacea [19]) | GLXMA control rating (0-9) (Glycine max [28]) | LAMPU control rating (0-9) (Lamium purpureum [31]) | ABUTH control rating (0-9) (Abutilon theophrasti [35])
5 (definite injury): CHEAL control rating (0-9) (Chenopodium album [20]) | AMARE control rating (0-9) (Amaranthus retroflexus [23])
0 (no effect): IPOHE control rating (0-9) (Ipomoea hederacea [1]) | CHEAL control rating (0-9) (Chenopodium album [2]) | MATIN control rating (0-9) (Matricaria inodora [3]) | HORVW control rating (0-9) (Hordeum vulgare [4]) | TRZAW control rating (0-9) (Triticum aestivum [7]) | STEME control rating (0-9) (Stellaria media [8]) | ALOMY control rating (0-9) (Alopecurus myosuroides [9]) | GLXMA control rating (0-9) (Glycine max [10]) | SETVI control rating (0-9) (Setaria viridis [11]) | GALAP control rating (0-9) (Galium aparine [12]) | LAMPU control rating (0-9) (Lamium purpureum [13]) | GOSHI control rating (0-9) (Gossypium hirsutum [14]) | VERPE control rating (0-9) (Veronica persica [15]) | ZEAMX control rating (0-9) (Zea mays [16]) | ABUTH control rating (0-9) (Abutilon theophrasti [17]) | AMBEL control rating (0-9) (Ambrosia artemisifolia [18]) | MATIN control rating (0-9) (Matricaria inodora [21]) | HORVW control rating (0-9) (Hordeum vulgare [22]) | TRZAW control rating (0-9) (Triticum aestivum [25]) | STEME control rating (0-9) (Stellaria media [26]) | ALOMY control rating (0-9) (Alopecurus myosuroides [27]) | SETVI control rating (0-9) (Setaria viridis [29]) | GALAP control rating (0-9) (Galium aparine [30]) | GOSHI control rating (0-9) (Gossypium hirsutum [32]) | VERPE control rating (0-9) (Veronica persica [33]) | ZEAMX control rating (0-9) (Zea mays [34]) | AMBEL control rating (0-9) (Ambrosia artemisifolia [36])
3 (moderate effect): AMARE control rating (0-9) (Amaranthus retroflexus [5]) | PAPRH control rating (0-9) (Papaver rhoeas [6])

C[C@H](NC(=O)c1nnc(-c2ccc(Cl)cc2Cl)o1)c1ccccc1 [Example 26]
0 (no effect): IPOHE control rating (0-9) (Ipomoea hederacea [1]) | CHEAL control rating (0-9) (Chenopodium album [2]) | MATIN control rating (0-9) (Matricaria inodora [3]) | HORVW control rating (0-9) (Hordeum vulgare [4]) | TRZAW control rating (0-9) (Triticum aestivum [7]) | STEME control rating (0-9) (Stellaria media [8]) | ALOMY control rating (0-9) (Alopecurus myosuroides [9]) | GLXMA control rating (0-9) (Glycine max [10]) | SETVI control rating (0-9) (Setaria viridis [11]) | GALAP control rating (0-9) (Galium aparine [12]) | LAMPU control rating (0-9) (Lamium purpureum [13]) | GOSHI control rating (0-9) (Gossypium hirsutum [14]) | ZEAMX control rating (0-9) (Zea mays [16]) | ABUTH control rating (0-9) (Abutilon theophrasti [17]) | AMBEL control rating (0-9) (Ambrosia artemisifolia [18]) | IPOHE control rating (0-9) (Ipomoea hederacea [19]) | HORVW control rating (0-9) (Hordeum vulgare [22]) | TRZAW control rating (0-9) (Triticum aestivum [25]) | ALOMY control rating (0-9) (Alopecurus myosuroides [27]) | GALAP control rating (0-9) (Galium aparine [30]) | ZEAMX control rating (0-9) (Zea mays [34]) | AMBEL control rating (0-9) (Ambrosia artemisifolia [36])
1 (trace effect): ABUTH control rating (0-9) (Abutilon theophrasti [35])
4 (injury): SETVI control rating (0-9) (Setaria viridis [29])
8 (approaching complete kill): AMARE control rating (0-9) (Amaranthus retroflexus [23])
2 (slight effect): MATIN control rating (0-9) (Matricaria inodora [21]) | GLXMA control rating (0-9) (Glycine max [28])
7 (good herbicidal effect): VERPE control rating (0-9) (Veronica persica [15]) | LAMPU control rating (0-9) (Lamium purpureum [31])
5 (definite injury): CHEAL control rating (0-9) (Chenopodium album [20])
6 (herbicidal effect): STEME control rating (0-9) (Stellaria media [26])
9 (complete kill): PAPRH control rating (0-9) (Papaver rhoeas [6])
3 (moderate effect): AMARE control rating (0-9) (Amaranthus retroflexus [5]) | PAPRH control rating (0-9) (Papaver rhoeas [24]) | GOSHI control rating (0-9) (Gossypium hirsutum [32]) | VERPE control rating (0-9) (Veronica persica [33])

C[C@H](NC(=O)c1nnc(-c2ccc(Cl)c(Cl)c2)o1)c1ccccc1 [Example 27]
6 (herbicidal effect): CHEAL control rating (0-9) (Chenopodium album [20])
0 (no effect): IPOHE control rating (0-9) (Ipomoea hederacea [1]) | CHEAL control rating (0-9) (Chenopodium album [2]) | MATIN control rating (0-9) (Matricaria inodora [3]) | HORVW control rating (0-9) (Hordeum vulgare [4]) | AMARE control rating (0-9) (Amaranthus retroflexus [5]) | TRZAW control rating (0-9) (Triticum aestivum [7]) | STEME control rating (0-9) (Stellaria media [8]) | ALOMY control rating (0-9) (Alopecurus myosuroides [9]) | GLXMA control rating (0-9) (Glycine max [10]) | SETVI control rating (0-9) (Setaria viridis [11]) | GALAP control rating (0-9) (Galium aparine [12]) | LAMPU control rating (0-9) (Lamium purpureum [13]) | GOSHI control rating (0-9) (Gossypium hirsutum [14]) | ZEAMX control rating (0-9) (Zea mays [16]) | ABUTH control rating (0-9) (Abutilon theophrasti [17]) | AMBEL control rating (0-9) (Ambrosia artemisifolia [18]) | IPOHE control rating (0-9) (Ipomoea hederacea [19]) | MATIN control rating (0-9) (Matricaria inodora [21]) | HORVW control rating (0-9) (Hordeum vulgare [22]) | TRZAW control rating (0-9) (Triticum aestivum [25]) | STEME control rating (0-9) (Stellaria media [26]) | ALOMY control rating (0-9) (Alopecurus myosuroides [27]) | SETVI control rating (0-9) (Setaria viridis [29]) | GALAP control rating (0-9) (Galium aparine [30]) | VERPE control rating (0-9) (Veronica persica [33]) | ZEAMX control rating (0-9) (Zea mays [34]) | ABUTH control rating (0-9) (Abutilon theophrasti [35]) | AMBEL control rating (0-9) (Ambrosia artemisifolia [36])
2 (slight effect): PAPRH control rating (0-9) (Papaver rhoeas [24]) | GLXMA control rating (0-9) (Glycine max [28]) | GOSHI control rating (0-9) (Gossypium hirsutum [32])
5 (definite injury): AMARE control rating (0-9) (Amaranthus retroflexus [23])
4 (injury): LAMPU control rating (0-9) (Lamium purpureum [31])
3 (moderate effect): PAPRH control rating (0-9) (Papaver rhoeas [6]) | VERPE control rating (0-9) (Veronica persica [15])
